How the values were obtained:
Propionibacterium acnes = assay: Log reduction assay; type: cell-based; settings: 3.125% solution
Procedure: In order to determine the efficacy of Neramexane against a specific microorganism population (i.e., Propionibacterium acnes), a log reduction assay is performed. The organisms are prepared by inoculating the fluid thioglycolate (FTM). The microorganism is then incubated at 35.2±2.5° C. for 24 hours. The microbial suspension is adjusted to approximately 107 to 108 colony forming units (CFU) per mL and labeled as the stock suspension. […] Then […] is transferred into 11 mL of DI water to prepare a 3.125% solution. This solution is then inoculated with the microorganism and tested at time intervals of 30 seconds, 1 minute, and 5 minutes. One milliliter from each dilution is spread plated in duplicate onto tryptic soy agar with 5% sheep blood. The plates are incubated anaerobically at 35.2±2.5° C. for a minimum of 48 hours. The same procedure is repeated for the Phosphate Buffer Saline control. After the incubation period, all plates are counted to determine the number of microorganisms remaining at each time point. The concentration of each microorganism for the control and product is calculated for each interval. The log reduction is calculated to determine the change (reduction or increase) of the microorganism population relative to a starting inoculum. The minimum required bactericidal concentration is defined as a 3 log reduction from the initial inoculum.

dermal application sites = assay: Local tolerability of topical formulation, 14 days of daily dermal treatment; type: in vivo, Göttingen minipigs
Procedure: The objective of this study is to evaluate the local tolerance of Neramexane mesylate in a topical formulation at different dose levels after 14 days of daily dermal treatment to minipigs.
The study is performed in 4 female Gottingen SPF minipigs (from Ellegaard Gottingen Minipigs Aps). Each animal has 5 application sites (25 cm^2) marked on the back and is dosed for 8 hours each day. Each test site is used for the same test item or placebo throughout the study. The test group is treated with Neramexane mesylate at the following concentrations: 0, 0.5, 2.5, 5.0 and 10.0% (w/w).
Clinical signs are recorded 2-4 hours post start of each treatment and the local dermal reactions (erythema, oedema) are evaluated prior to treatment. Body weight is recorded weekly (and also on Day 1 and at necropsy).

[1] = tested on: Staphylococcus aureus ATCC 6538; assay: MIC by the agar dilution method; type: cell-based; settings: pH 5.5
Procedure: (§1) To assess the anti-microbial potency of Neramexane against bacteria strains which are relevant for atopic dermatitis and localized skin infections (“impetigo”), the minimal inhibitory concentration (MIC) against the following bacteria is established:
(§2) The MICs of the samples are determined using the agar dilution method based on DIN 58940. Petri dishes of 5.5 cm diameter are poured with 2.5 ml of freshly prepared Mueller-Hinton agar 2-fold concentrated (Merck company, Cat-No 1.05437), pH 5.5, maintained in liquid form at 50° C., to which the sample dilutions at various concentrations has been added at 50.0 vol.-%.
(§3) Neramexane-Mesylate is tested in the concentration range of 6.25-1*10^−2%. All test solutions are adjusted to pH 5.5.
(§4) For inoculation, 1 μl of the respective germ suspension is placed on the centre of each agar plate. After drying, inoculated plates are incubated at 36.0±2.0° C. The basis for the length of incubation period is the respective growth control cultivated in parallel.
(§5) The test microbe suspension is prepared by inoculating a few individual colonies of the respective bacteria into sterile saline solution until a turbidity corresponding to the McFarland standard 1.0 (approximately 10^8 cfu/ml) is reached. After that, the test microbe suspensions are further diluted 1:10 with saline solution and the microbial counts (see Table 33) are determined by the surface spread method using a spiral plater.
(§6) The agar plates are incubated under the conditions given in Table 34 and subsequently evaluated. The MIC-values as given represent the lowest concentration of the active substance at which there is no macroscopically visible growth. Minimal, barely visible growth or few small individual colonies are evaluated as inhibition.
(§7) The growth of bacteria is indicated for the duplicate plates by a +(i.e., growth) or a −(i.e., no growth), +− indicates weak growth on both plates or growth on one plate and no growth on the other plate. Both bacteria-strains show appropriate growth on the respective control plate not containing any test compound. No influence of the used diluent (Aqua purifacata) is observed. No contamination is observed on the control-plates. In general it has to be considered that values determined by the used method can vary by a factor of 2 (for 1:2 dilutions).

[2] = tested on: Streptococcus pyogenes ATCC 12344; assay: MIC by the agar dilution method; type: cell-based; settings: pH 5.5
Procedure: as §1, §2, §3, §4, §5, §6, §7

[3] = 0.5, 2.5, 5.0 and 10.0% (w/w), dermal, 14 days

Structure (SMILES): CC1(C)CC(C)(C)CC(C)(N)C1.CS(=O)(=O)O [Neramexane mesylate]
- % Reduction (Propionibacterium acnes; exposure time 30 sec): 91.6%
- Concentration of Organism (CFU/mL) (Propionibacterium acnes; exposure time 30 sec): 1.8E+04 CFU/mL
- Log Reduction (Propionibacterium acnes; exposure time 30 sec): 1.1
- % Reduction (Propionibacterium acnes; exposure time 1 min): 79.0%
- Concentration of Organism (CFU/mL) (Propionibacterium acnes; exposure time 1 min): 4.4E+04 CFU/mL
- Log Reduction (Propionibacterium acnes; exposure time 1 min): 0.7
- % Reduction (Propionibacterium acnes; exposure time 5 min): 100.0%
- Concentration of Organism (CFU/mL) (Propionibacterium acnes; exposure time 5 min): <10 CFU/mL
- Log Reduction (Propionibacterium acnes; exposure time 5 min): 4.3
- test item related changes (conclusion) (dermal application sites; 0.5%, 2.5%, 5% and 10% in a topical formulation, 14 Days): no test item related changes
- clinical signs and body weight gain (dermal application sites; [3]): No test item related changes are observed
- dermal skin reactions (erythema, oedema) (dermal application sites; [3]): no test item related dermal skin reactions are observed
- gross necropsy (dermal application sites; [3]): no macroscopic changes are observed
- histopathology evaluation of the dermal application sites (dermal application sites; [3]): no treatment-related macroscopic or microscopic findings
- growth of bacteria on duplicate plates (MIC determination) ([1]; final concentration 0.01 %): + +
- growth of bacteria on duplicate plates (MIC determination) ([1]; final concentration 0.04 %): + +
- growth of bacteria on duplicate plates (MIC determination) ([1]; final concentration 0.08 %): + +
- growth of bacteria on duplicate plates (MIC determination) ([1]; final concentration 0.16 %): + +
- growth of bacteria on duplicate plates (MIC determination) ([1]; final concentration 0.31 %): + +
- growth of bacteria on duplicate plates (MIC determination) ([1]; final concentration 0.63 %): + −
- growth of bacteria on duplicate plates (MIC determination) ([1]; final concentration 1.56 %): − −
- growth of bacteria on duplicate plates (MIC determination) ([1]; final concentration 2.50 %): − −
- growth of bacteria on duplicate plates (MIC determination) ([1]; final concentration 3.13 %): − −
- growth of bacteria on duplicate plates (MIC determination) ([1]; final concentration 6.25 %): − −
- MIC [1]: 1.56%
- growth of bacteria on duplicate plates (MIC determination) ([2]; final concentration 0.01 %): + +
- growth of bacteria on duplicate plates (MIC determination) ([2]; final concentration 0.04 %): + +
- growth of bacteria on duplicate plates (MIC determination) ([2]; final concentration 0.08 %): − −
- growth of bacteria on duplicate plates (MIC determination) ([2]; final concentration 0.16 %): − −
- growth of bacteria on duplicate plates (MIC determination) ([2]; final concentration 0.31 %): − −
- growth of bacteria on duplicate plates (MIC determination) ([2]; final concentration 0.63 %): − −
- growth of bacteria on duplicate plates (MIC determination) ([2]; final concentration 1.56 %): − −
- growth of bacteria on duplicate plates (MIC determination) ([2]; final concentration 2.50 %): − −
- growth of bacteria on duplicate plates (MIC determination) ([2]; final concentration 3.13 %): − −
- growth of bacteria on duplicate plates (MIC determination) ([2]; final concentration 6.25 %): − −
- MIC [2]: 0.08%

From US20140228440A1, “1-AMINO-ALKYLCYCLOHEXANE DERIVATIVES FOR THE TREATMENT OF INFLAMMATORY SKIN DISEASES” (MERZ PHARMA GmbH & CO. KGaA, priority 2008, published 2014)
